Assay results from ChEMBL document CHEMBL3877297, “Chemical exploration of 4-(4-fluorobenzyl)piperidine fragment for the development of new tyrosinase inhibitors” (Eur J Med Chem, 2017).
Active and inactive are the calls of the source. The calls are words filed in the database; no cut-off is given here.

What was measured:
[1] = target: T1, Mushroom tyrosinase (Agaricus bisporus) (UniProt O42713+Q00024+C7FF04+C7FF05); experiment: Non-competitive inhibition of mushroom tyrosinase diphenolase activity at 4 to 16 uM using varying levels of L-DOPA as substrate by Lineweaver-Burk plot analysis
Mushroom tyrosinase [2] = target: T2, Mushroom tyrosinase (Agaricus bisporus, UniProt O42713+Q00024+C7FF04+C7FF05); experiment: Inhibition of mushroom tyrosinase monophenolase activity using L-tyrosine as substrate measured after 30 mins
Mushroom tyrosinase [3] = target: T2, Mushroom tyrosinase; experiment: Inhibition of mushroom tyrosinase diphenolase activity using L-DOPA as substrate measured after 5 mins
[4] = target: T1, Mushroom tyrosinase (Agaricus bisporus); experiment: Potency index, ratio of 3-(4-benzylpiperidin-1-yl)-1-(1H-indol-3-yl)propan-1-one IC50 to compound IC50 for mushroom tyrosinase diphenolase activity
[5] = target: T1, Mushroom tyrosinase (Agaricus bisporus); experiment: Non-competitive inhibition of mushroom tyrosinase diphenolase activity at 25 to 100 uM using varying levels of L-DOPA as substrate by Lineweaver-Burk plot analysis
[6] = target: T1, Mushroom tyrosinase (Agaricus bisporus); experiment: Potency index, ratio of 3-(4-benzylpiperidin-1-yl)-1-(1H-indol-3-yl)propan-1-one IC50 to compound IC50 for mushroom tyrosinase monophenolase activity
Mushroom tyrosinase [7] = target: T2, Mushroom tyrosinase; experiment: Inhibition of mushroom tyrosinase assessed as reduction in formation of dopachrome using L-DOPA as substrate
[8] = target: T1, Mushroom tyrosinase (Agaricus bisporus); experiment: Mixed-type inhibition of mushroom tyrosinase diphenolase activity at 4 to 16 uM using varying levels of L-DOPA as substrate by Lineweaver-Burk plot analysis

Structure (SMILES)	IC50 (Mushroom tyrosinase [2]) [µM]	IC50 (Mushroom tyrosinase [3]) [µM]	also measured
O=C(CCN1CCC(Cc2ccccc2)CC1)c1c[nH]c2ccccc12	175	252	
O=C(CCN1CCC(Cc2ccc(F)cc2)CC1)n1cnc2ccccc21	113.34	159.24	
O=C(CCN1CCC(Cc2ccc(F)cc2)CC1)Nc1cc[nH]n1	5.87	39.58	
COc1ccc2[nH]cc(C(=O)CCN3CCC(Cc4ccccc4)CC3)c2c1	25.78	197.45	Ratio IC50 [6]: 7
COc1cccc2c1c(C(=O)C(=O)Nc1cn[nH]n1)cn2Cc1ccc(F)cc1			IC50 (Mushroom tyrosinase [7]): 372 µM
COc1ccc2c(C(=O)CCN3CCC(Cc4ccc(F)cc4)CC3)c[nH]c2c1	9.4	18.03	inhibition [1]: Active; Ratio IC50 [4]: < 35
CCN1CCC(Cc2ccc(F)cc2)CC1	32.17	116	
COc1cc2[nH]cc(C(=O)CCN3CCC(Cc4ccc(F)cc4)CC3)c2cc1OC	5.11	7.56	inhibition [8]: Active; Ratio IC50 [4]: < 35
COc1cccc2c1c(C(=O)/C=C(\O)C(=O)O)cn2Cc1ccc(F)cc1			IC50 (Mushroom tyrosinase [7]): 224 µM

More lines, main results first:

IC50 (Mushroom tyrosinase [2]) [µM]	IC50 (Mushroom tyrosinase [3]) [µM]	Structure (SMILES)	also measured
7.86	14.15	COc1ccc2[nH]cc(C(=O)CCN3CCC(Cc4ccc(F)cc4)CC3)c2c1	inhibition [1]: Active; Ratio IC50 [4]: < 35
67.25	168.55	COc1ccc2c(C(=O)CCN3CCC(Cc4ccccc4)CC3)c[nH]c2c1	
28.55	110.95	Cc1cc(NC(=O)CCN2CCC(Cc3ccc(F)cc3)CC2)on1	
28.85	27.9	O=C(CCN1CCC(Cc2ccc(F)cc2)CC1)Nc1ccccc1	inhibition [5]: Active
13.98	83	O=C(CCN1CCC(Cc2ccc(F)cc2)CC1)NCc1ccccc1	
9.45	8.82	O=C(CCN1CCC(Cc2ccc(F)cc2)CC1)c1c[nH]c2ccccc12	inhibition [1]: Active; Ratio IC50 [4]: < 35
57.24	133	COc1cc2[nH]cc(C(=O)CCN3CCC(Cc4ccccc4)CC3)c2cc1OC	
